One compound from ChEMBL document CHEMBL1122718, “Benzylamines: synthesis and evaluation of antimycobacterial properties” (1984) can be followed below.

The subject of assay [1] is Mycobacterium tuberculosis. Kind of assay: Compounds were evaluated for the minimum inhibitory concentration (MIC) Mycobacterium tuberculosis H 37 Rv (INH resistant). In kind it is functional.
Assay [2] relates to Mycobacterium tuberculosis. Kind of assay: Compounds were evaluated for the minimum inhibitory concentration (MIC) Mycobacterium tuberculosis H 37 Rv (thiosemicarbazone resistant). The class given is functional.

For orientation: MIC means the lowest concentration that inhibits growth of the organism. The low end stands for greater potency, the high end for weaker potency. On to `CCCCNCc1cccc(F)c1.Cl`, for which the MIC in assay [1] was determined as 8 µg/mL; in assay [2], 32 µg/mL.
